# According to US20240158446A1, “CYCLIC COMPOUND HAVING SELECTIVE INHIBITORY ACTION ON KRAS OVER HRAS AND NRAS” (CHUGAI SEIYAKU KABUSHIKI KAISHA, priority 2021, published 2024):
# How the values were obtained:
# [1] = tested on: human lung cancer strain NCI-H441;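 also: cell proliferation inhibition after four days measured by CellTiter-Glo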
# [2] = biological target: GDP-bound NRAS wild-type protein (Homo sapiens, UniProt P01111); test: Binding to NRAS by surface plasmon resonance (SPR), Single Cycle Kinetics; details: SPR KD ratio NRAS/KRAS, class symbols
# [3] = biological target: GDP-bound KRAS wild-type protein (Homo sapiens, UniProt P01116); test: Binding to KRAS by surface plasmon resonance (SPR), Single Cycle Kinetics; details: SPR Single Cycle Kinetics, GDP-bound KRAS wild-type protein, 1:1 binding model; read-out: KRAS KD
# [4] = biological target: GDP-bound HRAS wild-type protein (Homo sapiens, UniProt P01112); test: Binding to HRAS by surface plasmon resonance (SPR), Single Cycle Kinetics; details: SPR KD ratio HRAS/KRAS, class symbols
# Sequence of GDP-bound HRAS wild-type protein (P01112 whole entry): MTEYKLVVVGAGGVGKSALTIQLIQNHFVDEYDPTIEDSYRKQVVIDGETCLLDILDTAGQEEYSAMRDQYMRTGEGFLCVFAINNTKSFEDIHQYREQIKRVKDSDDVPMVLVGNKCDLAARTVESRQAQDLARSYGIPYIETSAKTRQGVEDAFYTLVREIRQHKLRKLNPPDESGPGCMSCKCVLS
# Sequence of GDP-bound KRAS wild-type protein (P01116 whole entry): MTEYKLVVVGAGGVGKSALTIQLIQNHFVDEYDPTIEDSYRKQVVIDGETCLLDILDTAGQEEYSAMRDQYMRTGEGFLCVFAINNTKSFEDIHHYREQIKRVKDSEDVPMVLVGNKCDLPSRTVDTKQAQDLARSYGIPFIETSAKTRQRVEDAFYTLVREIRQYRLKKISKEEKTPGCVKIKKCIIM
# Sequence of GDP-bound NRAS wild-type protein (P01111 whole entry): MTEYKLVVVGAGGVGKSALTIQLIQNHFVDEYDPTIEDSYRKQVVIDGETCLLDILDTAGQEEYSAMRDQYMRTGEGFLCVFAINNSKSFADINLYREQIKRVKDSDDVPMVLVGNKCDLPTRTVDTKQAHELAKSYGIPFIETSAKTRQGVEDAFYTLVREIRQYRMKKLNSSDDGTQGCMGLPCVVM
compound,measurement,setting,value
CCO[C@@H]1C[C@H]2C(=O)NC3(CC(C)(C)C3)C(=O)N(C)[C@@H](C3CCCC3)C(=O)N(C)[C@H](C(=O)N3CCCCC3)CC(=O)N(C)[C@@H](COC)C(=O)N[C@@H]([C@@H](C)CC)C(=O)N(C3CC3)CC(=O)N(C)[C@H]3C/C=C\CCN(C3=O)[C@@H](Cc3ccc(C(F)(F)F)cc3)C(=O)N(C)CC(=O)N[C@@H](CCc3cc(F)c(C(F)(F)F)c(F)c3)C(=O)N2C1 [PP2666],IC50,[1],28.6 nM
same,NRAS/KRAS (ratio of KD value with respect to GDP-bound NRAS wild-type protein to KD value with respect to KRAS),[2],AA (a compound having 20 or more is denoted as AA)
same,Kd,[3],0.72 nM
same,HRAS/KRAS (ratio of KD value with respect to GDP-bound HRAS wild-type protein to KD value with respect to KRAS),[4],AA (a compound having 20 or more is denoted as AA)
CC[C@H](C)[C@@H]1NC(=O)[C@H](COC)N(C)C(=O)C[C@@H](C(=O)N2CCCCC2)N(C)C(=O)[C@H](C2CCCC2)N(C)C(=O)C2(CC(C)(C)C2)NC(=O)[C@@H]2C[C@@H](OC(C)C)CN2C(=O)[C@H](CCc2cc(F)c(C(F)(F)F)c(F)c2)NC(=O)CN(C)C(=O)[C@H](Cc2ccc(C(F)(F)F)cc2)N2CC/C=C\C[C@@H](C2=O)N(C)C(=O)CN(C2CC2)C1=O [PP2667],IC50,[1],30.6 nM
same,NRAS/KRAS (ratio of KD value with respect to GDP-bound NRAS wild-type protein to KD value with respect to KRAS),[2],A (a compound having 10 or more and less than 20 is denoted as A)
same,Kd,[3],1.8 nM
same,HRAS/KRAS (ratio of KD value with respect to GDP-bound HRAS wild-type protein to KD value with respect to KRAS),[4],A (a compound having 10 or more and less than 20 is denoted as A)
CCO[C@@H]1C[C@H]2C(=O)NC3(CC(C)(C)C3)C(=O)N(C)[C@@H](C3CCCC3)C(=O)N(C)[C@H](C(=O)N3CCCCC3)CC(=O)N(C)[C@@H](COC)C(=O)N[C@@H]([C@@H](C)CC)C(=O)N(C)CC(=O)N(C)[C@H]3C/C=C\CCN(C3=O)[C@@H](Cc3ccc(C)cc3)C(=O)N(C)CC(=O)N[C@@H](CCc3cc(F)c(C(F)(F)F)c(F)c3)C(=O)N2C1 [PP2668],IC50,[1],10.3 nM
same,NRAS/KRAS (ratio of KD value with respect to GDP-bound NRAS wild-type protein to KD value with respect to KRAS),[2],A (a compound having 10 or more and less than 20 is denoted as A)
same,Kd,[3],0.18 nM
same,HRAS/KRAS (ratio of KD value with respect to GDP-bound HRAS wild-type protein to KD value with respect to KRAS),[4],A (a compound having 10 or more and less than 20 is denoted as A)
CC[C@H](C)[C@@H]1NC(=O)[C@H](COC)N(C)C(=O)C[C@@H](C(=O)N2CCCCC2)N(C)C(=O)[C@H](C2CCCC2)N(C)C(=O)C2(CC(C)(C)C2)NC(=O)[C@@H]2C[C@@H](OC(C)C)CN2C(=O)[C@H](CCc2cc(F)c(C(F)(F)F)c(F)c2)NC(=O)CN(C)C(=O)[C@H](Cc2ccc(C)cc2)N2CC/C=C\C[C@@H](C2=O)N(C)C(=O)CN(C)C1=O [PP2669],IC50,[1],18.7 nM
same,NRAS/KRAS (ratio of KD value with respect to GDP-bound NRAS wild-type protein to KD value with respect to KRAS),[2],A (a compound having 10 or more and less than 20 is denoted as A)
same,Kd,[3],0.29 nM
same,HRAS/KRAS (ratio of KD value with respect to GDP-bound HRAS wild-type protein to KD value with respect to KRAS),[4],A (a compound having 10 or more and less than 20 is denoted as A)
CCO[C@@H]1C[C@H]2C(=O)NC3(CC(C)(C)C3)C(=O)N(C)[C@@H](C3CCCC3)C(=O)N(C)[C@H](C(=O)N3CCCCC3)CC(=O)N(C)[C@@H](COC)C(=O)N[C@@H]([C@@H](C)CC)C(=O)N(C)CC(=O)N(C)[C@H]3C/C=C\CCN(C3=O)[C@@H](Cc3ccc(C(F)(F)F)cc3)C(=O)N(C)CC(=O)N[C@@H](CCc3ccc(Cl)c(Cl)c3)C(=O)N2C1 [PP2670],IC50,[1],25.2 nM
same,NRAS/KRAS (ratio of KD value with respect to GDP-bound NRAS wild-type protein to KD value with respect to KRAS),[2],AA (a compound having 20 or more is denoted as AA)
same,Kd,[3],0.48 nM
same,HRAS/KRAS (ratio of KD value with respect to GDP-bound HRAS wild-type protein to KD value with respect to KRAS),[4],A (a compound having 10 or more and less than 20 is denoted as A)
CC[C@H](C)[C@@H]1NC(=O)[C@H](COC)N(C)C(=O)C[C@@H](C(=O)N2CCCCC2)N(C)C(=O)[C@H](C2CCCC2)N(C)C(=O)C2(CC(C)(C)C2)NC(=O)[C@@H]2C[C@@H](OC(C)C)CN2C(=O)[C@H](CCc2ccc(Cl)c(Cl)c2)NC(=O)CN(C)C(=O)[C@H](Cc2ccc(C(F)(F)F)cc2)N2CC/C=C\C[C@@H](C2=O)N(C)C(=O)CN(C)C1=O [PP2671],IC50,[1],26.3 nM
same,NRAS/KRAS (ratio of KD value with respect to GDP-bound NRAS wild-type protein to KD value with respect to KRAS),[2],A (a compound having 10 or more and less than 20 is denoted as A)
same,Kd,[3],0.67 nM
same,HRAS/KRAS (ratio of KD value with respect to GDP-bound HRAS wild-type protein to KD value with respect to KRAS),[4],A (a compound having 10 or more and less than 20 is denoted as A)
CCC[C@H]1C(=O)N[C@@H]([C@@H](C)CC)C(=O)N(C)CC(=O)N(C)[C@H]2C/C=C\CCN(C2=O)[C@@H](Cc2ccc(C)cc2)C(=O)N(C)CC(=O)N[C@@H](CCc2cc(F)c(C(F)(F)F)c(F)c2)C(=O)N2C[C@H](OCC)C[C@H]2C(=O)NC2(CC(C)(C)C2)C(=O)N(C)[C@@H](CC(C)(C)C)C(=O)N(C)[C@H](C(=O)N(C)C)CC(=O)N1C [PP2706],IC50,[1],2.3 nM
same,NRAS/KRAS (ratio of KD value with respect to GDP-bound NRAS wild-type protein to KD value with respect to KRAS),[2],A (a compound having 10 or more and less than 20 is denoted as A)
same,Kd,[3],0.076 nM
same,HRAS/KRAS (ratio of KD value with respect to GDP-bound HRAS wild-type protein to KD value with respect to KRAS),[4],B (a compound having 3 or more and less than 10 is denoted as B)
CCCOC[C@H]1C(=O)N[C@@H]([C@@H](C)CC)C(=O)N(C)CC(=O)N(C)[C@H]2C/C=C\CCN(C2=O)[C@@H](Cc2ccc(C)cc2)C(=O)N(C)CC(=O)N[C@@H](CCc2cc(F)c(C(F)(F)F)c(F)c2)C(=O)N2C[C@H](OCC)C[C@H]2C(=O)NC2(CC(C)(C)C2)C(=O)N(C)[C@@H](CC(C)(C)C)C(=O)N(C)[C@H](C(=O)N(C)C)CC(=O)N1C [PP2708],IC50,[1],5.1 nM
same,NRAS/KRAS (ratio of KD value with respect to GDP-bound NRAS wild-type protein to KD value with respect to KRAS),[2],A (a compound having 10 or more and less than 20 is denoted as A)
same,Kd,[3],0.072 nM
same,HRAS/KRAS (ratio of KD value with respect to GDP-bound HRAS wild-type protein to KD value with respect to KRAS),[4],A (a compound having 10 or more and less than 20 is denoted as A)
CCC[C@H]1C(=O)N[C@@H]([C@@H](C)CC)C(=O)N(C)CC(=O)N(C)[C@H]2C/C=C\CCN(C2=O)[C@@H](Cc2ccc(C)cc2)C(=O)N(C)CC(=O)N[C@@H](CCc2ccc(C(F)(F)F)c(OC)c2)C(=O)N2C[C@H](OCC)C[C@H]2C(=O)NC2(CC(C)(C)C2)C(=O)N(C)[C@@H](CC(C)(C)C)C(=O)N(C)[C@H](C(=O)N(C)C)CC(=O)N1C [PP2710],IC50,[1],5.3 nM
same,NRAS/KRAS (ratio of KD value with respect to GDP-bound NRAS wild-type protein to KD value with respect to KRAS),[2],B (a compound having 3 or more and less than 10 is denoted as B)
same,Kd,[3],0.1 nM
same,HRAS/KRAS (ratio of KD value with respect to GDP-bound HRAS wild-type protein to KD value with respect to KRAS),[4],B (a compound having 3 or more and less than 10 is denoted as B)
CCCOC[C@H]1C(=O)N[C@@H]([C@@H](C)CC)C(=O)N(C)CC(=O)N(C)[C@H]2C/C=C\CCN(C2=O)[C@@H](Cc2ccc(C)cc2)C(=O)N(C)CC(=O)N[C@@H](CCc2ccc(C(F)(F)F)c(OC)c2)C(=O)N2C[C@H](OCC)C[C@H]2C(=O)NC2(CC(C)(C)C2)C(=O)N(C)[C@@H](CC(C)(C)C)C(=O)N(C)[C@H](C(=O)N(C)C)CC(=O)N1C [PP2712],IC50,[1],6.3 nM
same,NRAS/KRAS (ratio of KD value with respect to GDP-bound NRAS wild-type protein to KD value with respect to KRAS),[2],A (a compound having 10 or more and less than 20 is denoted as A)
same,Kd,[3],0.11 nM
same,HRAS/KRAS (ratio of KD value with respect to GDP-bound HRAS wild-type protein to KD value with respect to KRAS),[4],B (a compound having 3 or more and less than 10 is denoted as B)
